Source: BindingDB's records for doi:10.1111/cbdd.12463 (University of California San Diego, 2015)

Experiments:
[1] = target: T1, Decaprenyl diphosphate synthase (Mycobacterium tuberculosis (strain CDC 1551 / Oshkosh), UniProt P9WFF6); assay: DPPS Inhibition (GPP based) Assay; conditions: pH 7.5
T1 sequence (P9WFF6 whole entry): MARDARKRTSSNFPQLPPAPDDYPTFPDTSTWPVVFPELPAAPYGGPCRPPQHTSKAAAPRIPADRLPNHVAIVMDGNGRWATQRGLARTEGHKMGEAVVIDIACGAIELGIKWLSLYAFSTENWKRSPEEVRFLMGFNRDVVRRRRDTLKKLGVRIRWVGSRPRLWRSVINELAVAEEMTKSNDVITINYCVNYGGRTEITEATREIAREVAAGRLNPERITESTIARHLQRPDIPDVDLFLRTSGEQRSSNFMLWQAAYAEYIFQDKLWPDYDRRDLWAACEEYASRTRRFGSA
Text: We screened an in-house library of 43 compounds using GPP as substrate.

[2] = target: T1, Decaprenyl diphosphate synthase; assay: DPPS Inhibition (cis FPP based) Assay; conditions: pH 7.5
Text: We screened an in-house library of 19 compounds using cis-FPP as substrate.

[3] = target: T2, Tuberculosinyl adenosine transferase (Mycobacterium tuberculosis (strain CDC 1551 / Oshkosh), UniProt P9WJ60); assay: Rv3378c Inhibition Assay
T2 sequence (P9WJ60 whole entry): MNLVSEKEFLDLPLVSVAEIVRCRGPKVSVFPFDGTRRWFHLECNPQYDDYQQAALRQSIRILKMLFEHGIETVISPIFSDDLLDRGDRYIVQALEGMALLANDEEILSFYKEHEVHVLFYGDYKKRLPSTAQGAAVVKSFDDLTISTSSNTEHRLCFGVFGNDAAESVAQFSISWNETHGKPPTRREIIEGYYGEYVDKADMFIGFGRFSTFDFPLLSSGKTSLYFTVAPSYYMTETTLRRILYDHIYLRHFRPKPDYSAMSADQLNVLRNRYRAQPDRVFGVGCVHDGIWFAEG
Method: For inhibition assay of Rv3378c, using tuberculosinyl diphosphate and adenosine as substrates, a mixture of 100 µM TPP, 100 µM adenosine,75 µg/mL Rv3378c, and inhibitors in the assay buffer (25 mM Tris-HCl, 1 mM MgCl2, 0.01% Triton-X-100) was incubated for 2 h at 37 °C.

[4] = target: T1, Decaprenyl diphosphate synthase; assay: DPPS Inhibition (trans FPP based) Assay; conditions: pH 7.5
Text: We screened an in-house library of 53 compounds using trans-FPP as substrate.

| SMILES | IC50 [1] | IC50 [2] | IC50 [3] | IC50 [4] |
| --- | --- | --- | --- | --- |
| C(=C\c1cc2ccc(C3=NCCN3)cc2[nH]1)/c1cc2ccc(C3=NCCN3)cc2[nH]1 [BPH-1417] | 0.49 µM | 20 µM | 0.66 µM | – |
| O=P(O)(O)C(O)(Cc1cccc(-c2cccc3c2oc2ccccc23)c1)P(=O)(O)O [[1-hydroxy-2-(3-{8-oxatricyclo[7.4.0.0^{2,7}]trideca-1(13),2,4,6,9,11-hexaen-6-yl}phenyl)-1-phosphonoethyl]phosphonic acid] | – | – | 0.21 µM | 19 µM |
| O=C(Nc1cccc(C2=NCCN2)c1)c1ccc(-c2ccc(C(=O)Nc3cccc(C4=NCCN4)c3)cc2)cc1 [50460, 14] | – | – | 96 µM | – |
| CCCCCCCCOc1cccc(C(=O)Nc2ccc([N+](=O)[O-])cc2C(=O)O)c1 [BPH-1247] | 0.119 µM | 49 µM | – | – |
| CCCCCCCCOc1cccc(COc2ccc(S(=O)(=O)N3CCOCC3)cc2C(=O)O)c1 [BPH-1158] | 1.4 µM | 83 µM | – | – |
| CCCCCCCCOc1cccc(C(=O)Nc2cc(OC)c(OC)cc2C(=O)O)c1 [BPH-1294] | 0.205 µM | 62 µM | – | – |
| O=P(O)(O)C(O)(c1cccc(-c2cccc(-c3ccccc3)c2)c1)P(=O)(O)O [BPH-640] | 0.41 µM | 0.61 µM | – | – |
| CCCCCCCCOc1cccc(C(=O)Nc2ccc(Br)cc2C(=O)O)c1 [BPH-1264] | 0.068 µM | 11 µM | – | – |
| O=C(O)c1ccccc1SCc1cccc(Oc2ccccc2)c1 [BPH-1125] | 1.2 µM | 30 µM | – | – |
| C=CCC(/C=C/C(=O)Nc1ccc(F)cc1C(=O)O)OCCCCCCCC (configuration not stated) [BPH-1463] | 0.031 µM | 90 µM | – | – |
| CCCCCCCCOc1cccc(C(=O)Nc2cccc(C(=O)O)c2C(O)O)c1 [BPH-1461] | 0.164 µM | 55 µM | – | – |
